Measured values from article PMC12146338, “Bioanalytical assay for the quantification of rucaparib in rat plasma using UPLC-MS/MS: development, and validation for interaction with myricetin” (Frontiers in Pharmacology, 2025).

Columns and labels:
[1] = Drug-drug interaction (DDI) pharmacokinetic study of rucaparib with or without myricetin in rats
Protocol: Twelve Sprague-Dawley (SD) male rats were provided with an appropriate environment with unrestricted water and food for seven consecutive days prior to the experiment. The day prior to the study, the rats underwent a 12-h period of fasting while being allowed unfettered access to water. Subsequently, they were randomly assigned to two groups (n = 6). Group A was received an oral dose of rucaparib at 20 mg/kg, while Group B was received an oral administration of rucaparib at 20 mg/kg along with myricetin at 50 mg/kg. The doses of rucaparib ([Augustine et al., 2019]) and myricetin ([Ye et al., 2024]) administered were determined based on prior literatures. Rucaparib was formulated in corn oil with myricetin prepared in 0.5% carboxymethylcellulose sodium (CMC-Na) solution. Group B rats were administered a single gavage of 50 mg/kg of myricetin, while Group A rats were received an equivalent volume of CMC-Na solution. Subsequently, at the 30 min mark, both groups were administered a single dose of 20 mg/kg of rucaparib. Before dosing (designated as 0 h) and at 1.5, 3, 4, 5, 6, 8, 12, 24 and 36 h post-dosing, 0.3 mL of plasma samples were drawn from the caudal vein. These samples were collected into heparin-containing tubes and then centrifuged at 8,000 rpm at 4°C for 10 min. Afterwards, the plasma was transferred to new tubes and preserved at −80°C for further analysis.
The DAS 3.0 software was used to calculate the pharmacokinetic parameters of rucaparib using a non-compartmental model. The key pharmacokinetic parameters of the two groups were analyzed using an independent samples t-test in SPSS 24.0. The p-value of less than 0.05 indicated a significant difference between the two groups. Mean plasma concentration-time curves were generated with GraphPad Prism 9.0 software (GraphPad Software Inc., California, United States).

CYP2D6 = tested on: CYP2D6; set-up: method as in Lee et al., 2012; conditions: ref Lee et al., 2012; read-out: half-maximal inhibitory concentrations value, CYP2D6 metabolism; cited from earlier work
[2] = set-up: method as in Ross and Kasum, 2002; conditions: ref Ross and Kasum, 2002; cited from earlier work
[3] = Stability of rucaparib in rat plasma under different storage conditions (UPLC-MS/MS); format: in vitro ADME; conditions: n = 5
Protocol: The stability experiment was conducted at three different QCs (5.0, 200, and 400 ng/mL). It was carried out under various storage conditions, with each condition having five replicates (n = 5). These storage conditions encompassed stability within the analyzer (lasting for 4 h at 10°C), long-term storage (for 3 weeks at −80°C), short-term storage (for 3 h at room temperature) and freeze-thaw cycles (conducted three times).
The stability of rucaparib in rat plasma was examined under four distinct storage conditions. These included short-term storage (lasting 3 h at room temperature), exposure to three freeze-thaw cycles (transitioning from −80°C to room temperature), long-term storage (at −80°C for 21 days), and a 4 h placement in an autosampler maintained at 10°C.

[4] = male, Sprague-Dawley, rat, in vivo, po, 20 mg/kg

For `O=c1c(O)c(-c2cc(O)c(O)c(O)c2)oc2cc(O)cc(O)c12` [myricetin], the “effect on plasma exposure to rucaparib” value ([1]; rats, 50 mg/kg myricetin + 20 mg/kg rucaparib vs rucaparib alone, independent samples t-test, p < 0.05) is given as “no significant effect”, the IC50 (CYP2D6) is given as 57 µM and the bioavailability [2] is given as “low bioavailability”.
Compound `CNCc1ccc(-c2[nH]c3cc(F)cc4c3c2CCNC4=O)cc1` [Rucaparib] has an AUC(0-inf) [1, 4] of 1320 ng·h/mL, an AUC(0-t) [1, 4] of 1220 ng·h/mL and a CL/F [1, 4] of 294 mL/min/kg. For the same compound, the Cmax [1, 4] was 126 ± 58.5 ng/mL, the Tmax [1, 4] was 4.25 ± 1.78 h and the half-life [1, 4] was 10.9 ± 3.41 h. For the same compound, the “Stability RE (%)” value ([3]; added 5.0 ng/mL, Autosampler 10°C, 4 h) was 1.5%, the “Stability RE (%)” value ([3]; added 5.0 ng/mL, Room temperature, 3 h) was −4.2% and the “Stability RE (%)” value ([3]; added 5.0 ng/mL, Three freeze-thaw) was −10.1%. The “Stability RE (%)” value ([3]; added 5.0 ng/mL, −80°C, 3 weeks) was 5.7%, the “Stability RE (%)” value ([3]; added 200 ng/mL, Autosampler 10°C, 4 h) was 1.4% and the “Stability RE (%)” value ([3]; added 200 ng/mL, Room temperature, 3 h) was −11.5%. The “Stability RE (%)” value ([3]; added 200 ng/mL, Three freeze-thaw) was −1.6%, the “Stability RE (%)” value ([3]; added 200 ng/mL, −80°C, 3 weeks) was 9.2% and the “Stability RE (%)” value ([3]; added 400 ng/mL, Autosampler 10°C, 4 h) was 8.1%. The “Stability RE (%)” value ([3]; added 400 ng/mL, Room temperature, 3 h) was −3.1%, the “Stability RE (%)” value ([3]; added 400 ng/mL, Three freeze-thaw) was −11.6% and the “Stability RE (%)” value ([3]; added 400 ng/mL, −80°C, 3 weeks) was 1.4%.
